Results taken from patent US11414663B2, “Micro-RNA profiling, compositions, and methods of treating diseases” (GOWEY RESEARCH GROUP, PLLC, priority 2010, dated 2022).

tested on: miRNA; assay: Pre and post microRNA profiles of patients after spine injections of rate limiters; assay type: in vivo, human; conditions: spine injections in patients; pre vs post miRNA profiles

| SMILES | Impact on genome using spine injections |
| --- | --- |
| N[C@@H](CS)C(=O)O [Cysteine] | Increases ail miRNA |
| N[C@@H](CCC(=O)N[C@@H](CS)C(=O)NCC(=O)O)C(=O)O [Glutathione] | Decrease all miRNA |
| [Mg+2] [Magnesium] | Increases all miRNA |
| [Se] [Selenium] | Increases ail miRNA |
| [Zn] [Zinc] | Decrease all miRNA except miR-486 |

same assay, conditions: spine injections; all other miRNA levels lowered

| SMILES | miR-486 level, pre-treatment vs post-treatment profile |
| --- | --- |
| [Zn] [Zinc] | miR-486 had increased |
